Test results from article PMC5218480 (PLoS ONE, 2017).

Test system: MV-4-11 cells
Experiment: Gene expression microarray analysis (Affymetrix PrimeView) and GSEA
Format: cell-based, human
Design: RFU PODN (11730768_x_at) / Fold change /veh PODN (11730768_x_at) / RFU LINC00158 (11744669_a_at) / Fold change /veh LINC00158 (11744669_a_at) / RFU DUSP10 (11751237_a_at) / Fold change /veh DUSP10 (11751237_a_at) / RFU ID3 (11757404_x_at) / Fold change /veh ID3 (11757404_x_at) / RFU PLEKHG5 (11737974_s_at) / Fold change /veh PLEKHG5 (11737974_s_at) / RFU LRRC4B (11730491_at) / Fold change /veh LRRC4B (11730491_at) / RFU GIMAP4 (11747438_a_at) / Fold change /veh GIMAP4 (11747438_a_at) / RFU KRT8 (11758183_x_at) / Fold change /veh KRT8 (11758183_x_at) / RFU CNN1 (11734310_a_at) / Fold change /veh CNN1 (11734310_a_at) / RFU VPS37D (11726825_at) / Fold change /veh VPS37D (11726825_at) / RFU C10orf10 (11716522_x_at) / Fold change /veh C10orf10 (11716522_x_at) / RFU KIR2DL2 /// KIR2DL4 /// KIR2DL5A /// KIR2DL5B /// KIR2DS1 /// KIR2DS2 /// KIR2DS3 /// KIR2DS4 /// KIR3DL3 /// KIR3DL3 /// KIR3DS1 (11738374_at) / Fold change /veh KIR2DL2 /// KIR2DL4 /// KIR2DL5A /// KIR2DL5B /// KIR2DS1 /// KIR2DS2 /// KIR2DS3 /// KIR2DS4 /// KIR3DL3 /// KIR3DL3 /// KIR3DS1 (11738374_at) / RFU C1QL1 (11718748_at) / Fold change /veh C1QL1 (11718748_at) / RFU TMPRSS4 (11747572_a_at) / Fold change /veh TMPRSS4 (11747572_a_at) / RFU HAMP (11756126_x_at) / Fold change /veh HAMP (11756126_x_at) / RFU RNFT2 (11725882_a_at) / Fold change /veh RNFT2 (11725882_a_at) / RFU NR4A2 (11747474_a_at) / Fold change /veh NR4A2 (11747474_a_at) / RFU ABCC12 (11746883_a_at) / Fold change /veh ABCC12 (11746883_a_at) / RFU TMEM136 (11760407_x_at) / Fold change /veh TMEM136 (11760407_x_at) / RFU CLDN22 /// WWC2 (11732394_at) / Fold change /veh CLDN22 /// WWC2 (11732394_at) / RFU HLA-DPB1 (11760878_x_at) / Fold change /veh HLA-DPB1 (11760878_x_at) / RFU SPINT1 (11716480_a_at) / Fold change /veh SPINT1 (11716480_a_at) / RFU GAP43 (11754022_s_at) / Fold change /veh GAP43 (11754022_s_at) / RFU A4GNT (11735810_at) / Fold change /veh A4GNT (11735810_at) / RFU PRB3 (11715151_x_at) / Fold change /veh PRB3 (11715151_x_at) / RFU TUBB4B (11761932_at) / Fold change /veh TUBB4B (11761932_at) / RFU CAPN14 (11732068_a_at) / Fold change /veh CAPN14 (11732068_a_at) / RFU TMCC2 (11721928_a_at) / Fold change /veh TMCC2 (11721928_a_at) / RFU IRGQ (11745062_a_at) / Fold change /veh IRGQ (11745062_a_at) / RFU FAM174B (11720279_a_at) / Fold change /veh FAM174B (11720279_a_at) / RFU TMPRSS4 (11748680_a_at) / Fold change /veh TMPRSS4 (11748680_a_at) / RFU FAM212B (11763350_a_at) / Fold change /veh FAM212B (11763350_a_at) / RFU PLEKHG5 (11743358_a_at) / Fold change /veh PLEKHG5 (11743358_a_at) / RFU ZSCAN30 (11745921_a_at) / Fold change /veh ZSCAN30 (11745921_a_at) / RFU CMKLR1 (11741424_a_at) / Fold change /veh CMKLR1 (11741424_a_at) / RFU LOC101060620 /// MAPK8IP1 (11723275_at) / Fold change /veh LOC101060620 /// MAPK8IP1 (11723275_at) / RFU SPTSSB (11747773_x_at) / Fold change /veh SPTSSB (11747773_x_at) / RFU PRSS12 (11739890_at) / Fold change /veh PRSS12 (11739890_at) / RFU BIN1 (11741810_x_at) / Fold change /veh BIN1 (11741810_x_at) / RFU WNT11 (11732464_a_at) / Fold change /veh WNT11 (11732464_a_at) / RFU C10orf10 (11716521_a_at) / Fold change /veh C10orf10 (11716521_a_at) / RFU C5orf56 (11738089_at) / Fold change /veh C5orf56 (11738089_at) / RFU CYB561 (11721691_x_at) / Fold change /veh CYB561 (11721691_x_at) / RFU ANKRD19P (11752326_a_at) / Fold change /veh ANKRD19P (11752326_a_at) / RFU OR2T12 /// OR2T33 /// OR2T8 (11738714_s_at) / Fold change /veh OR2T12 /// OR2T33 /// OR2T8 (11738714_s_at) / RFU VCAN (11748164_a_at) / Fold change /veh VCAN (11748164_a_at) / RFU JSRP1 (11732532_at) / Fold change /veh JSRP1 (11732532_at) / RFU KRTAP10-11 (11738290_x_at) / Fold change /veh KRTAP10-11 (11738290_x_at) / RFU MYO3A (11730013_a_at) / Fold change /veh MYO3A (11730013_a_at) / RFU EBF3 (11725865_a_at) / Fold change /veh EBF3 (11725865_a_at) / RFU CAMK2N1 (11719241_x_at) / Fold change /veh CAMK2N1 (11719241_x_at) / RFU C5orf56 (11738088_a_at) / Fold change /veh C5orf56 (11738088_a_at) / RFU OLFML3 (11715873_a_at) / Fold change /veh OLFML3 (11715873_a_at) / RFU LOC100653217 /// NTM (11731650_a_at) / Fold change /veh LOC100653217 /// NTM (11731650_a_at) / RFU MAPK11 (11762145_a_at) / Fold change /veh MAPK11 (11762145_a_at) / RFU FIZ1 (11724087_x_at) / Fold change /veh FIZ1 (11724087_x_at) / RFU OASL (11726364_x_at) / Fold change /veh OASL (11726364_x_at) / RFU SOX15 (11748057_x_at) / Fold change /veh SOX15 (11748057_x_at) / RFU CD79A (11719716_a_at) / Fold change /veh CD79A (11719716_a_at) / RFU HIST1H1D (11736915_at) / Fold change /veh HIST1H1D (11736915_at) / RFU CASKIN2 (11723855_a_at) / Fold change /veh CASKIN2 (11723855_a_at) / RFU LOC730098 (11760151_x_at) / Fold change /veh LOC730098 (11760151_x_at) / RFU OR4N2 (11742367_at) / Fold change /veh OR4N2 (11742367_at) / RFU PRRT2 (11749266_a_at) / Fold change /veh PRRT2 (11749266_a_at) / RFU SNX32 (11753110_a_at) / Fold change /veh SNX32 (11753110_a_at) / RFU CDHR5 (11726645_a_at) / Fold change /veh CDHR5 (11726645_a_at) / RFU RCAN1 (11760418_a_at) / Fold change /veh RCAN1 (11760418_a_at) / RFU FAM167A (11723789_a_at) / Fold change /veh FAM167A (11723789_a_at) / RFU FAM26E (11764081_at) / Fold change /veh FAM26E (11764081_at) / RFU ISYNA1 (11749810_s_at) / Fold change /veh ISYNA1 (11749810_s_at) / RFU ACY1 (11761880_at) / Fold change /veh ACY1 (11761880_at) / RFU 11764098_at / Fold change /veh 11764098_at / RFU SAMD14 (11745864_x_at) / Fold change /veh SAMD14 (11745864_x_at) / RFU NPB (11741838_a_at) / Fold change /veh NPB (11741838_a_at) / RFU TMPRSS6 (11731388_a_at) / Fold change /veh TMPRSS6 (11731388_a_at) / RFU KRTAP10-2 (11738614_at) / Fold change /veh KRTAP10-2 (11738614_at) / RFU ARHGAP8 /// PRR5-ARHGAP8 (11727945_x_at) / Fold change /veh ARHGAP8 /// PRR5-ARHGAP8 (11727945_x_at) / RFU KRTAP5-7 /// NADSYN1 (11734609_at) / Fold change /veh KRTAP5-7 /// NADSYN1 (11734609_at) / RFU RASL12 (11751679_a_at) / Fold change /veh RASL12 (11751679_a_at) / RFU CDKN2B (11736163_a_at) / Fold change /veh CDKN2B (11736163_a_at) / RFU PRF1 (11729649_at) / Fold change /veh PRF1 (11729649_at) / RFU, ZNF638 /// ZNF638-IT1 / Fold change vs veh, ZNF638 /// ZNF638-IT1 / RFU, PANK3 / Fold change vs veh, PANK3 / RFU, SH3YL1 / Fold change vs veh, SH3YL1 / RFU, ZEB2 / Fold change vs veh, ZEB2 / RFU, NRIP1 / Fold change vs veh, NRIP1 / RFU, PTTG1IP / Fold change vs veh, PTTG1IP / RFU, CAPN2 / Fold change vs veh, CAPN2 / RFU, MED14 / Fold change vs veh, MED14 / RFU, SNORA58 / Fold change vs veh, SNORA58 / RFU, C1orf63 / Fold change vs veh, C1orf63 / RFU, LRRFIP1 / Fold change vs veh, LRRFIP1 / RFU, NDUFAF7 / Fold change vs veh, NDUFAF7 / RFU, SLC12A2 / Fold change vs veh, SLC12A2 / RFU, IBTK / Fold change vs veh, IBTK / RFU, ESF1 / Fold change vs veh, ESF1 / Fold change vs veh, TMEM50B / RFU, TAOK1 / Fold change vs veh, TAOK1 / RFU, ACBD3 / Fold change vs veh, ACBD3 / RFU, TMA16 / Fold change vs veh, TMA16 / RFU, RWDD3 / Fold change vs veh, RWDD3 / RFU, BCAT1 / Fold change vs veh, BCAT1 / RFU, EDEM3 / Fold change vs veh, EDEM3 / RFU, TMEM33 / Fold change vs veh, TMEM33 / RFU, WDR75 / Fold change vs veh, WDR75 / RFU, AHCTF1 / Fold change vs veh, AHCTF1 / RFU, TFRC / Fold change vs veh, TFRC / RFU, ZDHHC17 / Fold change vs veh, ZDHHC17 / RFU, NOM1 / Fold change vs veh, NOM1 / RFU, ARL8B / Fold change vs veh, ARL8B / RFU, ZBTB11 / Fold change vs veh, ZBTB11 / RFU, TAMM41 / Fold change vs veh, TAMM41 / RFU, KIAA1704 /// LOC100996395 / Fold change vs veh, KIAA1704 /// LOC100996395 / RFU, ING1 / Fold change vs veh, ING1 / RFU, TRMT61B / Fold change vs veh, TRMT61B / RFU, FUBP3 / Fold change vs veh, FUBP3 / RFU, TP53 / Fold change vs veh, TP53 / RFU, TNKS2 / Fold change vs veh, TNKS2 / RFU, ZFP14 / Fold change vs veh, ZFP14 / RFU, ACTR2 / Fold change vs veh, ACTR2 / RFU, PPP3R1 / Fold change vs veh, PPP3R1 / RFU, PIK3R1 / Fold change vs veh, PIK3R1 / RFU, HNRNPA1 / Fold change vs veh, HNRNPA1 / RFU, RNF170 / Fold change vs veh, RNF170 / RFU, ZNF28 / Fold change vs veh, ZNF28 / RFU, RNGTT / Fold change vs veh, RNGTT / RFU, OGT / Fold change vs veh, OGT / RFU, BRD1 / Fold change vs veh, BRD1 / RFU, MARS / Fold change vs veh, MARS / RFU, ZNF655 / Fold change vs veh, ZNF655 / RFU, FAHD1 / Fold change vs veh, FAHD1 / RFU, BDP1 / Fold change vs veh, BDP1 / RFU, LRRCC1 / Fold change vs veh, LRRCC1 / RFU, ARID1A / Fold change vs veh, ARID1A / RFU, ZNF146 / Fold change vs veh, ZNF146 / RFU, ZNF330 / Fold change vs veh, ZNF330 / RFU, GPN3 / Fold change vs veh, GPN3 / RFU, C9orf123 / Fold change vs veh, C9orf123 / RFU, N4BP2L2 / Fold change vs veh, N4BP2L2 / RFU, ARFIP1 / Fold change vs veh, ARFIP1 / RFU, FAM179B / Fold change vs veh, FAM179B / RFU, BCL10 / Fold change vs veh, BCL10 / RFU, UHRF1BP1L / Fold change vs veh, UHRF1BP1L / RFU, BET1 / Fold change vs veh, BET1 / RFU, CNOT2 / Fold change vs veh, CNOT2 / RFU, ZNF268 / Fold change vs veh, ZNF268 / Fold change vs veh, ZNF507 / RFU, DGCR2 / Fold change vs veh, DGCR2 / RFU, WDSUB1 / Fold change vs veh, WDSUB1 / Fold change vs veh, HSP90B1 /// MIR3652 / RFU, ADSS / Fold change vs veh, ADSS / RFU, GK / Fold change vs veh, GK / RFU, ZNF148 / Fold change vs veh, ZNF148 / RFU, TAF9 / Fold change vs veh, TAF9 / RFU, SLC1A5 / Fold change vs veh, SLC1A5 / RFU, SLMO2 / Fold change vs veh, SLMO2 / RFU, ABCC4 / Fold change vs veh, ABCC4 / RFU, LOC101060439 /// RAP1B / Fold change vs veh, LOC101060439 /// RAP1B / RFU, RFX7 / Fold change vs veh, RFX7 / RFU, GTPBP10 / Fold change vs veh, GTPBP10 / RFU, CNEP1R1 / Fold change vs veh, CNEP1R1 / RFU, BIVM-ERCC5 /// ERCC5 / Fold change vs veh, BIVM-ERCC5 /// ERCC5 / RFU, ILF3 / Fold change vs veh, ILF3 / RFU 11762660_at / Fold change /veh 11762660_at / RFU VCAN (11757783_s_at) / Fold change /veh VCAN (11757783_s_at) / RFU DDX43 (11728927_at) / Fold change /veh DDX43 (11728927_at) / RFU KRT8 (11758188_x_at) / Fold change /veh KRT8 (11758188_x_at) / RFU NKD1 (11759106_at) / Fold change /veh NKD1 (11759106_at) / RFU SRD5A1 (11742802_a_at) / Fold change /veh SRD5A1 (11742802_a_at) / RFU TPSAB1 /// TPSB2 (11721975_s_at) / Fold change /veh TPSAB1 /// TPSB2 (11721975_s_at) / RFU GSTM3 (11746129_a_at) / Fold change /veh GSTM3 (11746129_a_at) / RFU IL23R (11737362_x_at) / Fold change /veh IL23R (11737362_x_at) / RFU TMEM51 (11727254_a_at) / Fold change /veh TMEM51 (11727254_a_at) / RFU PIWIL2 (11732686_x_at) / Fold change /veh PIWIL2 (11732686_x_at) / RFU ORM1 (11744905_x_at) / Fold change /veh ORM1 (11744905_x_at) / RFU CCDC152 (11743942_at) / Fold change /veh CCDC152 (11743942_at) / RFU ECM1 (11717891_a_at) / Fold change /veh ECM1 (11717891_a_at) / RFU IL23R (11748794_a_at) / Fold change /veh IL23R (11748794_a_at) / RFU TNFAIP8L3 (11732012_x_at) / Fold change /veh TNFAIP8L3 (11732012_x_at) / RFU MBOAT4 (11741988_at) / Fold change /veh MBOAT4 (11741988_at) / RFU 11764193_at / Fold change /veh 11764193_at / RFU TMEM53 (11763286_at) / Fold change /veh TMEM53 (11763286_at) / RFU MAGEB2 (11727129_at) / Fold change /veh MAGEB2 (11727129_at) / RFU TMEM200A (11744735_a_at) / Fold change /veh TMEM200A (11744735_a_at) / RFU CCDC152 (11751479_a_at) / Fold change /veh CCDC152 (11751479_a_at) / RFU FAM211A (11726209_a_at) / Fold change /veh FAM211A (11726209_a_at) / RFU RGS16 (11746705_a_at) / Fold change /veh RGS16 (11746705_a_at) / RFU VCAN (11755009_s_at) / Fold change /veh VCAN (11755009_s_at) / RFU RHOB (11743442_s_at) / Fold change /veh RHOB (11743442_s_at) / RFU RGS16 (11720943_a_at) / Fold change /veh RGS16 (11720943_a_at) / RFU RGS16 (11720944_at) / Fold change /veh RGS16 (11720944_at) / RFU, VPS4B / Fold change vs veh, VPS4B / RFU, CREB1 / Fold change vs veh, CREB1 / RFU, DNAJC13 / Fold change vs veh, DNAJC13 / RFU, GNAQ / Fold change vs veh, GNAQ / RFU, CDK5R1 / Fold change vs veh, CDK5R1 / RFU, ZRANB3 / Fold change vs veh, ZRANB3 / RFU, CUL4A / Fold change vs veh, CUL4A / RFU, CCNY / Fold change vs veh, CCNY / RFU, UFL1 / Fold change vs veh, UFL1 / RFU, COG3 / Fold change vs veh, COG3 / RFU, DIAPH2 / Fold change vs veh, DIAPH2 / RFU, SKA2 / Fold change vs veh, SKA2 / RFU, AFF3 / Fold change vs veh, AFF3 / RFU, LMF1 / Fold change vs veh, LMF1 / RFU, IPO11 / Fold change vs veh, IPO11 / RFU, DFFB / Fold change vs veh, DFFB / RFU, FOXP1 / Fold change vs veh, FOXP1 / RFU, CARD8 / Fold change vs veh, CARD8 / RFU, STRN3 / Fold change vs veh, STRN3 / RFU, ADK / Fold change vs veh, ADK / RFU, RASSF2 / Fold change vs veh, RASSF2 / RFU, WIPF1 / Fold change vs veh, WIPF1 / RFU, LARP1B / Fold change vs veh, LARP1B / RFU, RASA1 / Fold change vs veh, RASA1 / RFU, RB1 / Fold change vs veh, RB1 / RFU, PPFIA1 / Fold change vs veh, PPFIA1 / RFU, MAT2A / Fold change vs veh, MAT2A / RFU, CCT5 / Fold change vs veh, CCT5 / RFU, WDR92 / Fold change vs veh, WDR92 / RFU, CUX1 / Fold change vs veh, CUX1 / RFU, TTC7A / Fold change vs veh, TTC7A / RFU, TMEM135 / Fold change vs veh, TMEM135 / RFU, DEPTOR / Fold change vs veh, DEPTOR / RFU, CPM / Fold change vs veh, CPM / RFU, DNAJB6 / Fold change vs veh, DNAJB6 / RFU, CACNA2D3 / Fold change vs veh, CACNA2D3 / RFU, DTX4 / Fold change vs veh, DTX4 / RFU, TFCP2 / Fold change vs veh, TFCP2 / RFU, GMCL1 /// GMCL1P1 / Fold change vs veh, GMCL1 /// GMCL1P1 / RFU, AEBP2 / Fold change vs veh, AEBP2 / RFU, SNHG1 /// SNORD22 /// SNORD25 /// SNORD26 /// SNORD27 /// SNORD28 /// SNORD29 /// SNORD31 / Fold change vs veh, SNHG1 /// SNORD22 /// SNORD25 /// SNORD26 /// SNORD27 /// SNORD28 /// SNORD29 /// SNORD31 / Fold change (Aza/veh), C12orf56 (ProbeSet 11735607_a_at) / Fold change (ACY-1035/veh), C12orf56 (ProbeSet 11735607_a_at) / Fold change (Aza/veh), FGFR1OP (ProbeSet 11751329_s_at) / Fold change (ACY-1035/veh), FGFR1OP (ProbeSet 11751329_s_at) / Fold change (Aza/veh), VPS36 (ProbeSet 11739960_a_at) / Fold change (ACY-1035/veh), VPS36 (ProbeSet 11739960_a_at) / RFU SYPL1 (11715823_x_at) / Fold change /veh SYPL1 (11715823_x_at) / RFU IGFBP7 (11715501_s_at) / Fold change /veh IGFBP7 (11715501_s_at) / RFU REEP3 (11722064_at) / Fold change /veh REEP3 (11722064_at) / RFU IGLL1 (11728026_x_at) / Fold change /veh IGLL1 (11728026_x_at): dose or concentration left out as unconfirmed
Conditions: ProbeSet 11721559_s_at; LIST B

Nc1ccc(-c2cccs2)cc1NC(=O)c1ccc2c(c1)cc(C1CC1)n2CCN1CCOCC1 [ACY-1035]
RFU, ZNF638 /// ZNF638-IT1: 322.16 RFU
